Results taken from BindingDB's records for patent US11547697 (Millennium Pharmaceuticals, 2023).

Tests used:
Experiment in all cases: Inhibition Assay of PI3K
[1] = molecular target: Phosphatidylinositol 4,5-bisphosphate 3-kinase catalytic subunit alpha isoform (Homo sapiens, UniProt P42336)
Procedure: (§1) An exemplary system is PI 3-Kinase (human) HTRF Assay from Upstate. […] Briefly, the assay is a time resolved FRET assay that indirectly measures PIP3 product formed by the activity of a PI3-K. The kinase reaction is performed in a microtitre plate (e.g., a 384 well microtitre plate). The total reaction volume is approximately 20 ul per well. In the first step, each well receives 2 ul of test compound in 20% dimethylsulphoxide resulting in a 2% DMSO final concentration. Next, approximately 14.5 ul of a kinase/PIP2 mixture (diluted in 1× reaction buffer) is added per well for a final concentration of 0.25-0.3 ug/ml kinase and 10 μM PIP2. The plate is sealed and incubated for 15 minutes at room temperature. To start the reaction, 3.5 ul of ATP (diluted in 1× reaction buffer) is added per well for a final concentration of 10 μM ATP. The plate is sealed and incubated for 1 hour at room temperature. The reaction is stopped by adding 5 ul of Stop Solution per well and then 5 ul of Detection Mix is added per well. The plate is sealed, incubated for 1 hour at room temperature, and then read on an appropriate plate reader.

[2] = molecular target: Phosphatidylinositol 4,5-bisphosphate 3-kinase catalytic subunit beta isoform (Homo sapiens, UniProt P42338)
Procedure: as §1

[3] = molecular target: T1, Phosphatidylinositol 4,5-bisphosphate 3-kinase catalytic subunit delta isoform (Homo sapiens, UniProt O00329)
T1 sequence (O00329 whole entry): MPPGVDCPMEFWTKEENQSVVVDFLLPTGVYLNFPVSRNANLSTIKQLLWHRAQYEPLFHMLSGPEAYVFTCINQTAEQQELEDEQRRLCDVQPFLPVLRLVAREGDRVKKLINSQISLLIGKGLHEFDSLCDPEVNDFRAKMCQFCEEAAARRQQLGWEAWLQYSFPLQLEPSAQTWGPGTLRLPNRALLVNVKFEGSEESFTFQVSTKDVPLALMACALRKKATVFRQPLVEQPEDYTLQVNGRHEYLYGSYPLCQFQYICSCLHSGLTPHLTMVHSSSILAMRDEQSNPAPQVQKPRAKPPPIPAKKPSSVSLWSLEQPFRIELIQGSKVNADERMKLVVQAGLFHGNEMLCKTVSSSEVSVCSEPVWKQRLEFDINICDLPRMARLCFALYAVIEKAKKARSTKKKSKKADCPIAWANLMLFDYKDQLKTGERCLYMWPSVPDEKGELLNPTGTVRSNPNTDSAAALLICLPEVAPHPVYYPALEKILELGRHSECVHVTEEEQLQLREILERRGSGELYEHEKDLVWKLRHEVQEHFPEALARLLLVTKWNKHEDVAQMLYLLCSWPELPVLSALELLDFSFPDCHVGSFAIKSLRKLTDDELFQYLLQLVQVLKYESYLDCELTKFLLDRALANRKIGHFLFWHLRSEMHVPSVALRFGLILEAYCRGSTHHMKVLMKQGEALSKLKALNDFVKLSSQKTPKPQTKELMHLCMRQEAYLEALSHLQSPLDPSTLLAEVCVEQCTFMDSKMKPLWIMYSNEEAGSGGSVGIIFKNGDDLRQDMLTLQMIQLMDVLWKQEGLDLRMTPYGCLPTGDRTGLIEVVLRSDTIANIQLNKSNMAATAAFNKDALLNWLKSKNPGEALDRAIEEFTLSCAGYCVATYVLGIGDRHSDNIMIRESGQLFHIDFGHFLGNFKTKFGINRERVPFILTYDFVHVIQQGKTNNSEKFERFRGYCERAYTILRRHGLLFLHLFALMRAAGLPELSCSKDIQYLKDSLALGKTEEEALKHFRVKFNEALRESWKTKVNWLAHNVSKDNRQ
Procedure: as §1

[4] = molecular target: Phosphatidylinositol 4,5-bisphosphate 3-kinase catalytic subunit gamma isoform (Homo sapiens, UniProt P48736)
Procedure: as §1

Measured: IC50

Sequence of Phosphatidylinositol 4,5-bisphosphate 3-kinase catalytic subunit alpha isoform (P42336 whole entry, canonical isoform): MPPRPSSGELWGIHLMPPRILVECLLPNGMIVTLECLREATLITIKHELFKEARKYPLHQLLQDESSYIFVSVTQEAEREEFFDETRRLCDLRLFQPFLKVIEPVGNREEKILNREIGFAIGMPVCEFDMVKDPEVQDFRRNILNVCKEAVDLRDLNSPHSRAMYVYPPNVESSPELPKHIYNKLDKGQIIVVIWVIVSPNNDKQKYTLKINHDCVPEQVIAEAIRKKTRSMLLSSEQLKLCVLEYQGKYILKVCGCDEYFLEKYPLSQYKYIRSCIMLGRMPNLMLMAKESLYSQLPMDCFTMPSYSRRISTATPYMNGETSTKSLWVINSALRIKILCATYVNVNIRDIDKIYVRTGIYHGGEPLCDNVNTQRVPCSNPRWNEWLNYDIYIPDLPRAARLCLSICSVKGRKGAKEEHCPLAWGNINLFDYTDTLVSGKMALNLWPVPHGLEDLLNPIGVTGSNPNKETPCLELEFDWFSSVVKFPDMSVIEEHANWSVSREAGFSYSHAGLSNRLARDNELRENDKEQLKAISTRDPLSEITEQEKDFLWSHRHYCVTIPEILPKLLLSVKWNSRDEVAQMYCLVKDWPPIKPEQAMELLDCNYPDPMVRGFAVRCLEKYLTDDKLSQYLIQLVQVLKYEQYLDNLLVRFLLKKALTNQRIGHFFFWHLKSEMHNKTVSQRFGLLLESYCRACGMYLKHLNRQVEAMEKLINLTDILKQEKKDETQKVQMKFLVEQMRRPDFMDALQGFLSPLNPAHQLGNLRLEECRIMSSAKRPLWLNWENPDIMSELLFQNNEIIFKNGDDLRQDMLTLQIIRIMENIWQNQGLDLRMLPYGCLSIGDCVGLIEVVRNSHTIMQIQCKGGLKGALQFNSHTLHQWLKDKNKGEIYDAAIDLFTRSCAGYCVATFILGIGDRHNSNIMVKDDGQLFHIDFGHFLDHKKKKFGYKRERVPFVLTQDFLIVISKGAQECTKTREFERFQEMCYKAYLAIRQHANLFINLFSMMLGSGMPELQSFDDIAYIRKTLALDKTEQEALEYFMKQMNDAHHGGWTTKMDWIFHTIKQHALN
Sequence of Phosphatidylinositol 4,5-bisphosphate 3-kinase catalytic subunit beta isoform (P42338 whole entry, canonical isoform): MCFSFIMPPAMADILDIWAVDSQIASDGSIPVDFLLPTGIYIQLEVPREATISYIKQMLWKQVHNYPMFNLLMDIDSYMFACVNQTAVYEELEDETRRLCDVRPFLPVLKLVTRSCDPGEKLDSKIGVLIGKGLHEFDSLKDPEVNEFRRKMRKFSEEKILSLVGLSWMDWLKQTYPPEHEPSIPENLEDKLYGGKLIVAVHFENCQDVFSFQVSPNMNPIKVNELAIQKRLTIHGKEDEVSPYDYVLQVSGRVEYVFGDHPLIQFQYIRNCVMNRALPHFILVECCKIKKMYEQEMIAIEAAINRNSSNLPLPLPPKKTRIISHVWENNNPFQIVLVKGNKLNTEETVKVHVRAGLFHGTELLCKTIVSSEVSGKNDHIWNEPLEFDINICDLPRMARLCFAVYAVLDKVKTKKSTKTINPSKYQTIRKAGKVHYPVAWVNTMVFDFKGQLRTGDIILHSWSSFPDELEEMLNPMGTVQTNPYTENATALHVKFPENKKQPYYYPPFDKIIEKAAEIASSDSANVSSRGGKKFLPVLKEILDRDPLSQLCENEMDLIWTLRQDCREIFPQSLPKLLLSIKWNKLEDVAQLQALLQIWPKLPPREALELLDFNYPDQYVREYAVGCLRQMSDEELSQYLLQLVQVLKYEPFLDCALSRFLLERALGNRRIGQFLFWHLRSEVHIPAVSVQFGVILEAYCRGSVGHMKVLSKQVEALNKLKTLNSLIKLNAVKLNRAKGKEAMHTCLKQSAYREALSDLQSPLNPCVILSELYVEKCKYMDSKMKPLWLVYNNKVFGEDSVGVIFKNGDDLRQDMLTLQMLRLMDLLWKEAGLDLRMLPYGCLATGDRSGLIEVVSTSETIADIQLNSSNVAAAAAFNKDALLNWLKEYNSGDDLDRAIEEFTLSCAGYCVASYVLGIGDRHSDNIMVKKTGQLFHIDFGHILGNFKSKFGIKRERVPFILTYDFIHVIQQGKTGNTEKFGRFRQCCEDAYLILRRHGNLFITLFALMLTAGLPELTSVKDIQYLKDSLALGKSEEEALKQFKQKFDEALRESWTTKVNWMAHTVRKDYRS
Sequence of Phosphatidylinositol 4,5-bisphosphate 3-kinase catalytic subunit gamma isoform (P48736 whole entry, canonical isoform): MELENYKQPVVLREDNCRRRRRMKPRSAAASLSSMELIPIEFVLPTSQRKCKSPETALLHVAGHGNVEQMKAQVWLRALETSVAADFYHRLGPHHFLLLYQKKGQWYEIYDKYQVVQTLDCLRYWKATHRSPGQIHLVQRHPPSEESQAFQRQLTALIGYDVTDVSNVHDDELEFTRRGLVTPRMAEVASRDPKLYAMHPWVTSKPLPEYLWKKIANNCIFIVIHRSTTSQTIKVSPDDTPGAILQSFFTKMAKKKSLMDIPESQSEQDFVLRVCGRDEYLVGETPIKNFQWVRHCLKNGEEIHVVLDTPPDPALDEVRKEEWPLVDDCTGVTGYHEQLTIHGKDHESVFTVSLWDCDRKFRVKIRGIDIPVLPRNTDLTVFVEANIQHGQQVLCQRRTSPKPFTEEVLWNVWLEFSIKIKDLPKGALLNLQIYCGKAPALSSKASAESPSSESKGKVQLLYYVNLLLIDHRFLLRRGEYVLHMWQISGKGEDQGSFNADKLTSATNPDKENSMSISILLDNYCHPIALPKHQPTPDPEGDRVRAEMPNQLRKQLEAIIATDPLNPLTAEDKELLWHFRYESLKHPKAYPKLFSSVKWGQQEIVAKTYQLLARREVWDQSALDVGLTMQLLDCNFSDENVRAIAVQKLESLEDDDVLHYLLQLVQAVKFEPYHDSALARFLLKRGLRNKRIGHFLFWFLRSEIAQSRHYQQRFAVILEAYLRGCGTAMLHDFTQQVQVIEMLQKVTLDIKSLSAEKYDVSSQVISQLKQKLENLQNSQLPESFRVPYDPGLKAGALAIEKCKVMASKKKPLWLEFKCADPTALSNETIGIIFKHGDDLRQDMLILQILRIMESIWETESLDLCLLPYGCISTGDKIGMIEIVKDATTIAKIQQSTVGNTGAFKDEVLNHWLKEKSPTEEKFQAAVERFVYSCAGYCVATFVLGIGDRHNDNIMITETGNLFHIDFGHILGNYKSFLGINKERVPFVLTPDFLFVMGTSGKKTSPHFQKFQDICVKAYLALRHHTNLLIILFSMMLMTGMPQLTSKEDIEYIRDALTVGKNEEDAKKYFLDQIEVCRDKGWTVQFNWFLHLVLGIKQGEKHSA

Nc1nsc2ccc(-c3ccc4nccc(-c5ccncc5)c4c3)cc12 [US11547697, Compound 12]
> 10 µM: all assays above

Nc1noc2c(-c3ccc4ncc(C(=O)N5CCOCC5)n4c3)cccc12 [US11547697, Compound 491]
> 10 µM: all assays above

Cc1c(-c2ccc3oc(N)nc3c2)ccc2ncc(C(=O)N3CCOCC3)n12 [US11547697, Compound 349]
> 10 µM: all assays above

Nc1nc2ccc(-c3ccc4nc(N)oc4c3)cc2o1 [US11547697, Compound 246]
> 10 µM: all assays above

C[C@H]1CN(c2cnc3cccc(-c4ccc5oc(N)nc5c4)c3n2)CCN1 [US11547697, Compound 342]
> 10 µM: all assays above

C[C@H]1CN(c2cnc3ccc(-c4cccc5nc(N)oc45)cc3n2)CCN1 [US11547697, Compound 310]
> 10 µM: all assays above

CNS(=O)(=O)c1cccc(-c2ccc3ncc(C(=O)N4CCOCC4)n3c2)c1 [US11547697, Compound 442]
> 10 µM: all assays above

CN1CCC(Nc2nc3cc(-c4ccc5ncc(C(=O)N6CCOCC6)n5c4)ccc3o2)CC1 [US11547697, Compound 408]
> 10 µM: all assays above

Nc1nc2cc(-c3cn4c(C(=O)N5CCOCC5)cnc4cn3)ccc2o1 [US11547697, Compound 122]
> 10 µM: all assays above

CS(=O)(=O)Nc1nc2cc(-c3ccc4ncc(C(=O)N5CCOCC5)n4c3)ccc2o1 [US11547697, Compound 405]
> 10 µM: all assays above

C[C@H]1CN(c2cnc3ccc(-c4cccc5c(N)noc45)cc3n2)CCN1 [US11547697, Compound 363]
> 10 µM: all assays above

Cc1c(-c2ccc3ncc(C(=O)N4CCOCC4)n3c2)ccc2oc(N)nc12 [US11547697, Compound 369]
> 10 µM: all assays above

O=C(c1cnc2ccc(-c3ccc4c(Nc5ccccc5)noc4c3)cn12)N1CCOCC1 [US11547697, Compound 509]
> 10 µM: all assays above

Cc1cc2ncc(C(=O)N3CCOCC3)n2cc1-c1ccc2oc(N)nc2c1 [US11547697, Compound 507]
> 10 µM: all assays above

Cc1cc2oc(N)nc2cc1-c1ccc2ncc(C(=O)N3CCOCC3)n2c1 [US11547697, Compound 352]
> 10 µM: all assays above

Cc1c(-c2ccc3ncc(N4CC(N5CCOCC5)C4)nc3c2)ccc2oc(N)nc12 [US11547697, Compound 362]
> 10 µM: all assays above

Cc1nc2ccc(-c3ccc4oc(N)nc4c3)cn2c1C(=O)N1CCOCC1 [US11547697, Compound 92]
> 10 µM: all assays above

CC(=O)Nc1cn2cc(-c3ccc4nccc(-c5ccncc5)c4c3)ccc2n1 [US11547697, Compound 19]
> 10 µM: all assays above

Nc1n[nH]c2cc(-c3ccc4ncc(C(=O)N5CCOCC5)n4c3)ccc12 [US11547697, Compound 487]
> 10 µM: all assays above

CC(C)N1CCN(c2cnc3ccc(-c4ccc5oc(N)nc5c4)cc3n2)C(=O)C1 [US11547697, Compound 392]
> 10 µM: all assays above

CNS(=O)(=O)c1cc(-c2ccc3ncc(C(=O)N4CCOCC4)n3c2)ccc1OC [US11547697, Compound 445]
> 10 µM: all assays above

COc1ccc(CNc2n[nH]c3cc(-c4ccc5oc(N)nc5c4)ccc23)cc1 [US11547697, Compound 429]
> 10 µM: all assays above

O=C(c1cnc2ccc(-c3cccc(S(=O)(=O)Nc4cc(F)ccc4F)c3)cn12)N1CCOCC1 [US11547697, Compound 441]
> 10 µM: all assays above

O=C(c1cnc2ccc(-c3cccc(S(=O)(=O)Nc4ccccc4)c3)cn12)N1CCOCC1 [US11547697, Compound 440]
> 10 µM: all assays above

CC(=O)n1nc(N)c2ccc(-c3ccc4oc(N)nc4c3)cc21 [US11547697, Compound 426]
> 10 µM: all assays above

CC(=O)Nc1n[nH]c2ccc(-c3ccc4oc(N)nc4c3)cc12 [US11547697, Compound 431]
> 10 µM: all assays above

CC(=O)Nc1nc2cc(-c3ccc4oc(N)nc4c3)ccc2o1 [US11547697, Compound 244]
> 10 µM: all assays above

CC(C)N1CCC(n2cnc3ccc(-c4cncc(NS(C)(=O)=O)c4)cc3c2=O)CC1 [US11547697, Compound 520]
> 10 µM: all assays above
